The test system of this assay is human fibroblast cells (ws1). Kind of assay: Confocal imaging of Fe3+ with Rh-PK in ws1 cells. The class given is cell-based. The method, then: Human SH-SY5Y neuroblastoma cells and primary fibroblast ws1 cells were obtained from ATCC (American Type Culture Collection). Cells were maintained in a 1:1 mixture of Eagle's Minimal Essential medium (ATCC) and Ham's F12 medium (ATCC) supplemented with 10% fetal bovine serum (FBS, ATCC) without antibiotics and incubated at 37° C. in a humidified 5% CO2 atmosphere. The cells were routinely sub-cultured using 0.05% trypsin-EDTA solution (ATCC). The cells were seeded onto 2-chamber slides for 48 h at 5×10^4 cells/chamber and grown until each chamber was 20-30% confluent. A stock solution of Rh-PK ([…] in […]) was diluted to a concentration of […] in culture medium without FBS. […] The fluorescence responses of the sensor in living cells were measured under a Zeiss LSM 710 laser scanning confocal microscope. […] The REUSE function controlled by Zeiss software was applied to guarantee that all spectra were recorded under the same instrumental conditions.
The ability of Rh-PK to track Fe^3+ in live human fibroblast cells (ws1) was tested via a laser scanning confocal microscope (Zeiss LSM 710). […] Turn on fluorescence was observed, which is likely being triggered by endogenous labile Fe^3+. […]
FIG. 17A to FIG. 17C show the distribution of exchangeable Fe^3+ pools in live fibroblast cells (ws1). […] FIG. 17A is the Rh-PK-Fe3+ fluorescence intensity collected at 547-703 nm (red). […]

Regarding `CCN(CC)c1ccc2c(c1)Oc1cc(N(CC)CC)ccc1C21c2ccccc2C(=O)N1CC/N=C(\C)c1cccc(C(C)=O)n1` [Rh-PK, (E)-2-(2-((1-(6-acetylpyridin-2-yl)ethylidene)amino)ethyl)-3′,6′-bis(diethylamino)spiro[isoindoline-1,9′-xanthen]-3-one], the “fluorescence of Fe^3+-loaded cells versus before loading” value (10 μM Rh-PK, cells loaded with 50 μM Fe^3+) is “brighter and more widely distributed fluorescence signals”. Besides, the “fluorescence response after Fe^3+ pre-depletion” value (SIH 100 μM overnight, then Rh-PK) was “weaker fluorescence response”.

For the origin of these results see patent US11685741B2, “Fluorescent probes” (University of Massachusetts, priority 2017, dated 2023).
